Measurements as given in ChEMBL document CHEMBL3400015, “Tertiary amides of Salinomycin: A new group of antibacterial agents against Bacillus anthracis and methicillin-resistant Staphylococcus epidermidis” (Bioorg Med Chem Lett, 2015).
Values after ≈ are worked out from the molar mass of the structure shown.

Legend:
Bacillus subtilis [1] = assay: Genotoxicity in rec-positive Bacillus subtilis H17 at 2 ug/9 mm disc after 24 hrs by disc diffusion method; assay type: toxicity, organism-based
Bacillus subtilis [2] = assay: Genotoxicity in rec-negative Bacillus subtilis M45 at 2 ug/9 mm disc after 24 hrs by disc diffusion method; assay type: toxicity, organism-based
Bacillus anthracis = assay: Antimicrobial activity against Bacillus anthracis 34F2 after 18 hrs by twofold serial broth dilution method; assay type: functional; conditions: 34F2, 18 h

SMILES | diameter of the inhibition zone (DIZ) (Bacillus subtilis [1]) | diameter of the inhibition zone (DIZ) (Bacillus subtilis [2]) | MIC (Bacillus anthracis)
O=[N+]([O-])c1cc[n+]([O-])c2ccccc12 [4-NITROQUINOLINE-1-OXIDE] | 13 mm | 24 mm | 
CC[C@@H](C(=O)[C@@H](C)[C@@H](O)[C@H](C)[C@@H]1O[C@@H]([C@@H](CC)C(=O)O)CC[C@@H]1C)[C@H]1O[C@]2(C=C[C@@H](O)[C@]3(CC[C@@](C)([C@H]4CC[C@](O)(CC)[C@H](C)O4)O3)O2)[C@H](C)C[C@@H]1C [SALINOMYCIN] | 31 mm | 32 mm | 1 µg/mL (≈ 1.33 µM)
CC[C@@H](C(=O)[C@@H](C)[C@@H](O)[C@H](C)[C@@H]1O[C@@H]([C@@H](CC)C(=O)[O-])CC[C@@H]1C)[C@H]1O[C@]2(C=C[C@@H](O)[C@]3(CC[C@@](C)([C@H]4CC[C@](O)(CC)[C@H](C)O4)O3)O2)[C@H](C)C[C@@H]1C.[Na+] [SALINOMYCIN SODIUM] |  |  | 1 µg/mL
CC[C@@]1([C@H]2O[C@H]([C@H]3O[C@@](O)(CO)[C@H](C)C[C@@H]3C)C[C@H]2C)CC[C@H]([C@@]2(C)CC[C@]3(C[C@H](O)[C@@H](C)[C@@H]([C@H](C)[C@H](OC)[C@@H](C)C(=O)[O-])O3)O2)O1.[Na+] [MONENSIN SODIUM] |  |  | 1 µg/mL
